The record followed here is patent US11304926B2, “Application of transient receptor potential cation channel TRPV3 in developing drug for preventing or treating psoriasis” (CHINA PHARMACEUTICAL UNIVERSITY, priority 2019, dated 2022).

The subject of experiment [1] is mouse psoriasis model induced by 5% IMQ. In words: mRNA level of related inflammatory factors (qPCR) at lesion of mouse psoriasis model. It is filed as in vivo. The settings on record: 5% IMQ model. How it is done: 20 mg of skin tissues were grinded to powder with liquid nitrogen, added with 0.5 mL of Trizol (Vazyme, article number: R401-01), and incubated on ice for 10 minutes. A split product was transferred to a 1.5 mL RNase-free centrifuge tube, added with 100 μL of chloroform, then shaken vigorously for 15 seconds, stood on ice for 2 minutes, and then centrifuged at 4° C. at 12000 rpm for 10 minutes. A water phase on an upper layer was absorbed into a new 1.5 mL RNase-free centrifuge tube, added with the same amount of isopropanol to precipitate RNA, and then centrifuged at 4° C. at 12000 rpm for 10 minutes. A supernatant was discarded, 500 μL of 75% ethyl alcohol prepared with DEPC water was added to wash the RNA precipitate, and then centrifuged at 4° C. at 12000 rpm for 5 minutes. A supernatant was discarded, the RNA precipitate was slightly dried, and the RNA was dissolved with 10 μL of DEPC water. 1 μL of the mixture was subjected to concentration detection by a detection instrument which was Nano-100 ultra-micro spectrophotometer (Hangzhou Aosheng Instrument Co., Ltd., article number: AS-11010). Another 500 ng of the RNA was subjected to a reverse transcription reaction, which was operated according to instructions of HiScript® II One Step RT-PCR Kit (Vazyme, article number: P611-01). A reverse transcription product was stored at −20° C. for later use. […]
(In general: In qPCR the cycle at which signal appears reflects the starting amount.)

Experiment [2] has the same test system. In words: Content of related inflammatory factors (ELISA) in skin of mouse psoriasis model. It is filed as in vivo. Background: ELISA stands for enzyme-linked immunosorbent assay.
Experimental: Contents of IL17, IL23, CXCL15 and myeloperoxidase (MPO) in the skin of the mouse were detected by enzyme-linked immunosorbent assay (ELISA), and ELISA kits for various inflammatory factors were all purchased from ELISA Biotechnology Co., Ltd. Specific operation steps were briefly described as follows according to instructions: 50 mg of fresh skin sample was added with 450 μL of PBS (pH=7.2 to 7.4), homogenized on ice, and centrifuged at 5000 rpm for 15 minutes, and then a supernatant was used for detection. A standard substance was diluted according to a proportion, and a blank well, a standard substance well and a well for sample to be detected were set respectively. 50 μL of standard substance was accurately loaded to an ELISA coating plate, and 40 μL of sample diluent was added into the well for sample to be detected firstly, and then added with 10 μL of sample to be detected (a final dilution concentration of the sample was 5 times). The sample was loaded to bottoms of the wells in the ELISA plate without touching walls of the wells to the greatest extent, and then shaken and mixed gently. After sealing the plate with a microplate sealer, the mixture was incubated at 37° C. for 30 minutes. A 30-times concentrated cleaning solution was diluted 30 times with distilled water for later use. The microplate sealer was carefully removed, the liquid was discarded, and the remaining was subjected to spin-drying, and the cleaning solution was fully filled into each well, stood for 30 seconds and then discarded. The steps were repeated for 5 times, and then the mixture was patted dry. 50 μL of ELISA reagent was added into each well, except for the blank well. After sealing the plate with a microplate sealer, the mixture was incubated at 37° C. for 30 minutes. The microplate sealer was carefully removed, the liquid was discarded, and the remaining was subjected to spin-drying, and the cleaning solution was fully filled into each well, stood for 30 seconds and then discarded. […] An absorbance (OD value) of each well was measured sequentially at a wavelength of 450 nm. […]
Setting [3] is: ELISA, vs modeling mouse applied with IMQ.

`O=c1cc(-c2ccc(O)cc2)oc2cc(O)c(O)c(O)c12` [Scutellarein]: in experiment [1], the “transcription (mRNA level) of the related inflammatory factors” value is reported as “obviously reduce”. Moreover, the “secretion of the related inflammatory factors” value in experiment [2] (5% IMQ model) is on record as “obviously reduce”. Further, in experiment [2] (setting [3]), the “content of CXCL15 in the skin” value is on record as “significantly lower” and the “content of MPO in the skin” value is “significantly lower”.
